Experimental data published in patent US20060052311A1, “Peptide inhibitors of smac protein binding to inhibitor of apoptosis proteins (IAP)” (priority 2002, published 2006).

Tested on: GST-BIR3 fusion protein
Assay: FMAT solution phase assay: competition of GST-BIR3 off beads carrying biotinylated Smac 7-mer peptide
Assay type: binding
Settings: competing GST-BIR3 off beads with immobilized biotinylated Smac 7-mer peptide (AVPIAQK)
Procedure: In order to measure the ability of the inventive compounds to bind the BIR3 peptide binding pocket, a solution phase assay on the FMAT technology platform is utilized. Biotinylated Smac 7-mer peptide (AVPIAQK, lysine ε-amino group is biotinylated) is immobilized on streptavidin coated beads. GST-BIR3 fusion protein is precipitated with FMAT beads and is detected using fluorescent tagged anti-GST antibodies. […] The IC50 for non-biotinylated Smac is 400 nM.

IC50: 400 nM
Substance: non-biotinylated Smac: Non-biotinylated Smac peptide; the biotinylated bead-bound form is the Smac 7-mer AVPIAQK
